Results published in US20160256449A1, “H3 RECEPTOR ANTAGONIST FOR USE IN THE TREATMENT OF ALZHEIMER'S DISEASE” (SANOFI, priority 2013, published 2016).

Tested on: patients with mild to moderate Alzheimer's disease
Experiment: clinical study, Neuropsychiatric Inventory (NPI) domain scores
Type: in vivo, human
Protocol: A randomized, double-blind, parallel-group, placebo-controlled clinical trial was performed to study the effect on cognitive performance, safety, and tolerability of 2-(cyclohexylmethyl)-N-{2-[(2S)-1-methylpyrrolidin-2-yl]ethyl}-1,2,3,4-tetrahydroisoquinoline-7-sulfonamide difumarate monohydrate as adjunct treatment to donepezil.
More specifically, patients with mild to moderate Alzheimer's disease on stable donepezil therapy were randomized to receive doses of 0.5 mg, 2 mg, or 5 mg/day of 2-(cyclohexylmethyl)-N-{2-[(2S)-1-methylpyrrolidin-2-yl]ethyl}-1,2,3,4-tetrahydroisoquinoline-7-sulfonamide difumarate monohydrate or placebo for 24 weeks, with a 10 week follow-up period.
Patients were randomized to receive 0.5 mg, 2 mg, or 5 mg of 2-(cyclohexylmethyl)-N-{2-[(2S)-1-methylpyrrolidin-2-yl]ethyl}-1,2,3,4-tetrahydroisoquinoline-7-sulfonamide difumarate monohydrate (measured in base form), or matching placebo once a day, with donepezil (5 mg or 10 mg in the form the patient took prior to enrollment), for 24 weeks, with or without food.
[…] (NPI) domain scores of irritability/lability, anxiety, agitation/aggression, sleep and nighttime behavior disorders, aberrant motor behaviour, apathy/indifference, appetite/eating change, delusions, depression/dysphoria, disinhibition, elation/euphoria, and hallucinations.

CN1CCC[C@H]1CCNS(=O)(=O)c1ccc2c(c1)CN(CC1CCCCC1)CC2 [API, 2-(cyclohexylmethyl)-N-{2-[(2S)-1-methylpyrrolidin-2-yl]ethyl}-1,2,3,4-tetrahydroisoquinoline-7-sulfonamide difumarate monohydrate]
NPI Abberant motor behavior, Ch from bl W12 (0.5 mg/day with donepezil): −0.08 | NPI Abberant motor behavior, Ch from bl W24 (0.5 mg/day with donepezil): 0.42 | NPI Agitation/Aggression, Ch from bl W12 (0.5 mg/day with donepezil): 0.23 | NPI Agitation/Aggression, Ch from bl W24 (0.5 mg/day with donepezil): 0.04 | NPI Anxiety, Ch from bl W12 (0.5 mg/day with donepezil): 0.20 | NPI Anxiety, Ch from bl W24 (0.5 mg/day with donepezil): 0.16 | NPI Apathy/Indifference, Ch from bl W12 (0.5 mg/day with donepezil): −0.21 | NPI Apathy/Indifference, Ch from bl W24 (0.5 mg/day with donepezil): 0.13 | NPI Appetite/Eating changes, Ch from bl W12 (0.5 mg/day with donepezil): −0.58 | NPI Appetite/Eating changes, Ch from bl W24 (0.5 mg/day with donepezil): −0.33 | NPI Delusions, Ch from bl W12 (0.5 mg/day with donepezil): 0.31 | NPI Delusions, Ch from bl W24 (0.5 mg/day with donepezil): 0.28 | NPI Depression/Dysphoria, Ch from bl W12 (0.5 mg/day with donepezil): 0.00 | NPI Depression/Dysphoria, Ch from bl W24 (0.5 mg/day with donepezil): 0.07 | NPI Disinhibition, Ch from bl W12 (0.5 mg/day with donepezil): −0.13 | NPI Disinhibition, Ch from bl W24 (0.5 mg/day with donepezil): −0.06 | NPI Elation/Euphoria, Ch from bl W12 (0.5 mg/day with donepezil): 0.15 | NPI Elation/Euphoria, Ch from bl W24 (0.5 mg/day with donepezil): 0.20 | NPI Hallucination, Ch from bl W12 (0.5 mg/day with donepezil): 0.05 | NPI Hallucination, Ch from bl W24 (0.5 mg/day with donepezil): −0.06 | NPI Irritability lability, Ch from bl W12 (0.5 mg/day with donepezil): −0.07 | NPI Irritability lability, Ch from bl W24 (0.5 mg/day with donepezil): 0.09 | NPI Sleep and nighttime behavior, Ch from bl W12 (0.5 mg/day with donepezil): 0.30 | NPI Sleep and nighttime behavior, Ch from bl W24 (0.5 mg/day with donepezil): −0.23 | NPI Abberant motor behavior, Ch from bl W12 (2 mg/day with donepezil): 0.25 | NPI Abberant motor behavior, Ch from bl W24 (2 mg/day with donepezil): 0.56 | NPI Agitation/Aggression, Ch from bl W12 (2 mg/day with donepezil): 0.48 | NPI Agitation/Aggression, Ch from bl W24 (2 mg/day with donepezil): 0.68 | NPI Anxiety, Ch from bl W12 (2 mg/day with donepezil): −0.03 | NPI Anxiety, Ch from bl W24 (2 mg/day with donepezil): 0.15 | NPI Apathy/Indifference, Ch from bl W12 (2 mg/day with donepezil): 0.26 | NPI Apathy/Indifference, Ch from bl W24 (2 mg/day with donepezil): 0.92 | NPI Appetite/Eating changes, Ch from bl W12 (2 mg/day with donepezil): −0.18 | NPI Appetite/Eating changes, Ch from bl W24 (2 mg/day with donepezil): −0.02 | NPI Delusions, Ch from bl W12 (2 mg/day with donepezil): −0.05 | NPI Delusions, Ch from bl W24 (2 mg/day with donepezil): 0.21 | NPI Depression/Dysphoria, Ch from bl W12 (2 mg/day with donepezil): 0.35 | NPI Depression/Dysphoria, Ch from bl W24 (2 mg/day with donepezil): 0.12 | NPI Disinhibition, Ch from bl W12 (2 mg/day with donepezil): 0.08 | NPI Disinhibition, Ch from bl W24 (2 mg/day with donepezil): 0.03 | NPI Elation/Euphoria, Ch from bl W12 (2 mg/day with donepezil): −0.06 | NPI Elation/Euphoria, Ch from bl W24 (2 mg/day with donepezil): 0.07 | NPI Hallucination, Ch from bl W12 (2 mg/day with donepezil): 0.02 | NPI Hallucination, Ch from bl W24 (2 mg/day with donepezil): 0.02 | NPI Irritability lability, Ch from bl W12 (2 mg/day with donepezil): 0.47 | NPI Irritability lability, Ch from bl W24 (2 mg/day with donepezil): 0.63 | NPI Sleep and nighttime behavior, Ch from bl W12 (2 mg/day with donepezil): 0.33 | NPI Sleep and nighttime behavior, Ch from bl W24 (2 mg/day with donepezil): 0.19 | NPI Abberant motor behavior, Ch from bl W12 (5 mg/day with donepezil): −0.11 | NPI Abberant motor behavior, Ch from bl W24 (5 mg/day with donepezil): −0.69 | NPI Agitation/Aggression, Ch from bl W12 (5 mg/day with donepezil): −0.12 | NPI Agitation/Aggression, Ch from bl W24 (5 mg/day with donepezil): 0.58 | NPI Anxiety, Ch from bl W12 (5 mg/day with donepezil): 0.12 | NPI Anxiety, Ch from bl W24 (5 mg/day with donepezil): 0.12 | NPI Apathy/Indifference, Ch from bl W12 (5 mg/day with donepezil): 0.09 | NPI Apathy/Indifference, Ch from bl W24 (5 mg/day with donepezil): 0.10 | NPI Appetite/Eating changes, Ch from bl W12 (5 mg/day with donepezil): −0.17 | NPI Appetite/Eating changes, Ch from bl W24 (5 mg/day with donepezil): 0.1 | NPI Delusions, Ch from bl W12 (5 mg/day with donepezil): 0.00 | NPI Delusions, Ch from bl W24 (5 mg/day with donepezil): 0.04 | NPI Depression/Dysphoria, Ch from bl W12 (5 mg/day with donepezil): −0.07 | NPI Depression/Dysphoria, Ch from bl W24 (5 mg/day with donepezil): 0.25 | NPI Disinhibition, Ch from bl W12 (5 mg/day with donepezil): 0.00 | NPI Disinhibition, Ch from bl W24 (5 mg/day with donepezil): 0.06 | NPI Elation/Euphoria, Ch from bl W12 (5 mg/day with donepezil): 0.14 | NPI Elation/Euphoria, Ch from bl W24 (5 mg/day with donepezil): 0.10 | NPI Hallucination, Ch from bl W12 (5 mg/day with donepezil): −0.14 | NPI Hallucination, Ch from bl W24 (5 mg/day with donepezil): −0.15 | NPI Irritability lability, Ch from bl W12 (5 mg/day with donepezil): 0.03 | NPI Irritability lability, Ch from bl W24 (5 mg/day with donepezil): 0.47 | NPI Sleep and nighttime behavior, Ch from bl W12 (5 mg/day with donepezil): 0.08 | NPI Sleep and nighttime behavior, Ch from bl W24 (5 mg/day with donepezil): 0.71 | domains of the NPI, overall (0.5, 2, 5 mg/day with donepezil): No relevant modification
